Results published in US20250129095A1, “ANNULATED 2-AMINO-3-CYANO THIOPHENES AND DERIVATIVES FOR THE TREATMENT OF CANCER” (Boehringer Ingelheim Int'l GmbH Corp., priority 2021, published 2025).

Columns and labels:
Assay type in all cases: cell-based
MKN1 cells [1] = assay: MKN1 CTG proliferation assay (120 h) (gastric cancer, wt amplified), assay 2; conditions: Homo sapiens, MKN-1
Experimental: (§1) SAS cells (JCRB0260) are dispensed into 384-well plates, flat and clear bottom (Greiner, PNr. 781091) at a density of 300 cells per well in 60 μL DMEM:F12 (Gibco 31330-038)+10% Fetal Calf Serum (HyClone, PNr.: SH30084.03) and incubated at 37° C. in a CO2 incubator overnight The next day, compounds (10 mM stock in DMSO) are added with the ECHO acoustic liquid handler system (Beckman Coulter), including DMSO controls. Plates are incubated for 120 h, and cell viability is measured using CellTiter-Glo luminescent cell viability reagent (Promega product code G7570). Viability (stated as percent of control) is defined as relative luminescence units RLU of each well divided by the RLU of cells in DMSO controls.
(§2) MKN1 cells (JCRB0252) are dispensed into white 384-well plates, flat and white bottom (Perkin Elmer, 6007680) at a density of 500 cells per well in 40 μl RPMI (Gibco, PNr.: 21875034)+10% FCS (HyClone, PNr.: SH30084.03) (assay 1) or into black 384-well plates, flat and clear bottom (Greiner, PNr. 781091) at a density of 200 cells per well in 60 μl RPMI-1640 (Gibco #A10491)+10% FCS (HyClone, PNr.: SH30084.03)+PenStrep (Gibco, PNr.15140-122) (assay 2). […] Compounds (10 mM stock in DMSO) are added at logarithmic dose series using the HP Digital Dispenser D300 (Tecan) (assay 1) or the ECHO acoustic liquid handler system (Beckman Coulter) (assay 2), including DMSO controls and normalizing for added DMSO. Plates are incubated for 120 h, and cell viability is measured using CellTiter-Glo luminescent cell viability reagent (Promega product code G7570). Viability (stated as percent of control) is defined as relative luminescence units RLU of each well divided by the RLU of cells in DMSO controls.

MKN1 cells [2] = assay: MKN1 CTG proliferation assay (120 h) (gastric cancer, wt amplified), assay 1; conditions: Homo sapiens, MKN-1
Experimental: as §1, §2

GP2D cells = assay: GP2D proliferation assay (120 h) (colorectal cancer, G12D)
Experimental: GP2D cells (ATCC No. CRL-5807) are dispensed into white 384-well plates, flat and white bottom (Perkin Elmer, 6007680) at a density of 500 cells per well in 40 μl DMEM (Sigma, D6429)+1× GlutaMAX (Gibco, 35050038)+10% FCS (fetal calf serum). […] Compounds (10 mM stock in DMSO) are added at logarithmic dose series using the HP Digital Dispenser D300 (Tecan), including DMSO controls and normalizing for added DMSO. For the TO time point measurement, untreated cells are analyzed at the time of compound addition. Plates are incubated for 120 h, and cell viability is measured using CellTiter-Glo luminescent cell viability reagent (Promega product code G7570). Viability (stated as percent of control) is defined as relative luminescence units RLU of each well divided by the RLU of cells in DMSO controls.

| IC50 (MKN1 cells [1]) [µM] | IC50 (MKN1 cells [2]) [µM] | IC50 (GP2D cells) [µM] | Structure (SMILES) |
| --- | --- | --- | --- |
| 0.109 |  |  | C[C@H](Oc1cc(Oc2cccnc2)nc(-c2onc3c2CCC[C@@]32CCCc3sc(N)c(C#N)c32)n1)[C@@H]1CCCN1C [Example I-2] |
|  | 0.223 |  | CO[C@@H]1C[C@@H]([C@H](C)Oc2cc(O[C@@H]3CNC3(C)C)nc(-c3noc4c3CCC[C@@]43CCCc4sc(N)c(C#N)c43)n2)N(C)C1 [II-30] |
|  |  | 0.178 | C[C@H](Oc1cc(O[C@H]2CCOC2)nc(-c2noc3c2CCC[C@@]32CCCc3sc(N)c(C#N)c32)n1)[C@@H]1CCCN1C [II-4] |
|  |  | 0.02 | C[C@H]1CN(C)CCCN1c1cc(O[C@@H]2CNC2(C)C)nc(-c2noc3c2CCC[C@@]32CCCc3sc(N)c(C#N)c32)n1 [II-28] |
|  |  | 0.009 | C[C@H](Oc1cc(O[C@@H]2CNC[C@@H]2F)nc(-c2noc3c2CCC[C@@]32CCCc3sc(N)c(C#N)c32)n1)[C@@H]1CCCN1C [II-29] |
|  | 0.033 | 0.005 | C[C@H](Oc1cc(OCC2(N(C)C)COC2)nc(-c2noc3c2CCC[C@@]32CCCc3sc(N)c(C#N)c32)n1)[C@@H]1CCCN1C [II-22] |
| 0.043 |  | 0.01 | C[C@H](Oc1cc(Oc2cncnc2)nc(-c2noc3c2CCC[C@@]32CCCc3sc(N)c(C#N)c32)n1)[C@@H]1CCCN1C [II-1] |
| 0.108 |  | 0.011 | C[C@H](Oc1cc(OCC2(N(C)C)COC2)nc(-c2onc3c2CCC[C@@]32CCCc3sc(N)c(C#N)c32)n1)[C@@H]1CCCN1C [Example I-8] |
|  |  | 0.008 | C[C@H](Oc1cc(OCC2(N(C)C)CC2)nc(-c2noc3c2CCC[C@@]32CCCc3sc(N)c(C#N)c32)n1)[C@@H]1CCCN1C [II-21] |
|  | 0.357 | 0.001 | C[C@H](Oc1cc(O[C@@H]2CNC2(C)C)nc(-c2noc3c2CCC[C@@]32CCCc3sc(N)c(C#N)c32)n1)[C@@H]1C[C@@H](F)CN1C [II-31] |
|  |  | 0.012 | C[C@H](Oc1cc(Oc2cncnc2)nc(-c2onc3c2CCC[C@@]32CCCc3sc(N)c(C#N)c32)n1)[C@@H]1CCCN1C [Example I-3] |
|  |  | 0.017 | COc1c(OCC2(N(C)C)COC2)nc(-c2noc3c2CCC[C@@]32CCCc3sc(N)c(C#N)c32)nc1O[C@@H](C)[C@@H]1CCCN1C [II-25] |
| 0.09 |  |  | C[C@H](Oc1cc(OCCO)nc(-c2noc3c2CCC[C@@]32CCCc3sc(N)c(C#N)c32)n1)[C@@H]1CCCN1C [II-6] |
|  |  | 0.363 | C[C@H](Oc1cc(Nc2ncccn2)nc(-c2noc3c2CCC[C@@]32CCCc3sc(N)c(C#N)c32)n1)[C@@H]1CCCN1C [II-17] |
| 0.129 |  |  | C[C@H](Oc1cc(O[C@@H]2CNC2(C)C)nc(-c2noc3c2CCC[C@@]32CCCc3sc(N)c(C#N)c32)n1)[C@@H]1CCCN1C [II-9] |
